# From patent US20200129592A1, “COMPOSITION FOR TREATING STROKE AND METHOD FOR SCREENING THE SAME” (CHA University Industry-Academic Cooperation Foundation, priority 2018, published 2020)
# Assays:
# Type in all cases: cell-based, mouse
# Raw 264.7 cells [1] = assay: IL-1β and IL-1ra ELISA in supernatants of Raw 264.7 cells; details: LPS alone
# Method: A mouse macrophage cell line (Raw 264.7 cell, ATCC, VA) was cultured according to the manufacturer's instructions. The raw 264.7 cells were treated with either LPS (100 ng/ml, Sigma-Aldrich, MO) or LPS together with hUMSCs-CM for 24 hrs, and the supernatants were isolated from each treated group.
# (§1) IL-1β and IL-1ra levels were measured in supernatants of Raw 264.7 cells using commercially available ELISA kits (IL-1β Quantikine ELISA and IL-1 ra Quantikine ELISA kits, R&D Systems, MN).
# Raw 264.7 cells [2] = assay: Inhibition of p-CREB with KG501, IL-1ra ELISA in Raw 264.7 cells; details: KG501 2, 5, 10 μM pretreatment 45 min, then hUMSCs-CM with LPS 200 ng/ml
# Method: Raw 264.7 cells (2×10^5) were seeded onto the plate, and incubated for 24 hrs. The cells were pretreated with a serum-free medium containing KG501 (2 μM, 5 μM, and 10 μM, Sigma-Aldrich, MO) for 45 min. The supernatant was then removed from the dish, and the cells were treated with hUMSCs-CM in the presence of LPS (200 ng/ml). The supernatant was used for IL-1ra ELISA analysis. Independent experiments were triplicated on different days.
# as §1
# Raw 264.7 cells [3] = assay: Knockdown of CREB by siRNA in Raw 264.7 cells
# Method: After Raw 264.7 cells (2×10^5) were plated in 6-well plates, transfection with 100 nM of CREB siRNA (siCREB) and control (siCtr) was performed for 48 hrs using Lipofectamine 3000 reagent (Invitrogen, MA) according to the manufacturer's instructions. The siCREB (sense: 5′-[…]-3″, antisense: 5′-[…]-3″) and siCtr (sense: 5-ACGUGACACGUUCGGAGAA-3′, antisense: 5′-UUCUCCGAACGUGUCACGU-3″) were purchased from Genolution Pharmaceuticals, Inc. After transfection, the RNA and proteins were isolated and used for PCR and western blotting, respectively.
compound,measurement,setting,value
lipopolysaccharide [LPS],IL-1ra level in Raw 264.7 cells,Raw 264.7 cells [1],strongly elevated
same,IL-1β level in Raw 264.7 cells,Raw 264.7 cells [1],strongly elevated
O=C(Nc1ccc(Cl)cc1)c1cc2ccccc2cc1OP(=O)(O)O [KG501],increase of IL-1ra expression by hUMSCs-CM treatment,Raw 264.7 cells [2],inhibited in a CREB inhibitor dose-dependent manner
"siCREB: CREB siRNA, sense 5′-CCACAAAUCAGAUUAAUUUUU-3″, antisense 5′-AAAUUAAUCUGAUUUGUGGUU-3″ (chemistry not given here)",enhanced expression of IL1RN induced by hUMSCs-CM,"Raw 264.7 cells [3]; LPS-stimulated Raw 264.7 cells, knockdown of CREB",reduced
same,expression of IL-1ra protein in Raw 264.7 cells,"Raw 264.7 cells [3]; transfection with 100 nM siCREB, 48 hrs",reduced
